Data from PMC12006171, “Marsupial cathelicidins: characterization, antimicrobial activity and evolution in this unique mammalian lineage” (Frontiers in Immunology, 2025).
Where two headings read alike, the source gives them in different places.

How the values were obtained:
[1] = tested on: six bacteria (S. aureus, E. coli, P. aeruginosa; ATCC and clinical isolate); assay type: cell-based; conditions: synthesized mature peptide
Method: (§1) Antimicrobial testing of 78 cathelicidin MPs was performed in two phases as outlined in Figure 1 . In phase I, 40 peptides (27 extant and 13 ancestral) were selected for testing based on rank (outlined above) and similarity to published marsupial cathelicidins with known antimicrobial activity ([33], [41]–[43]). These peptides were tested against nine bacteria (Staphylococcus aureus ATCC 29213 and clinical isolate, Escherichia coli ATCC 25922 and clinical isolate, Pseudomonas aeruginosa ATCC 27853 and clinical isolate, Streptococcus agalactiae ATCC 12386 and clinical isolate, Streptococcus pneumoniae ATCC 49619) and three fungi (Candida krusei ATCC 6258, Candida parapsilosis ATCC 22019, and Candida albicans clinical isolate). Details regarding these strains are available in Supplementary Table 4 . The antimicrobial activity of cathelicidins was determined as the minimum inhibitory concentration (MIC), which was the lowest concentration of cathelicidin that prevented visible bacterial or fungal growth, relative to the negative control. […] Minimum bactericidal concentration (MBC) and/or minimum fungicidal concentration (MFC) was conducted to determine microbicidal versus static action. Activity against S. aureus ATCC, E. coli ATCC, and Pseudomonas aeruginosa ATCC 27853 was examined in the presence of divalent cations to determine the impact of inhibitors.
In phase II, the remaining 38 peptides (37 extant and one ancestral) were tested against six bacteria (S. aureus ATCC and clinical isolate, E. coli ATCC and clinical isolate, and P. aeruginosa ATCC and clinical isolate). […] No further testing on phase II peptides was performed. Detailed methods for all assays are provided in subsequent sections.
(§2) Antimicrobial activity was determined using a broth microdilution susceptibility assay in 96 well polypropylene plates according to Clinical Laboratory Standards Institute guidelines M07-A and M26A as described previously ([33], [42], [43]). The bacterial and fungal isolates from humans and animals used in this study are outlined in Supplementary Table 4 . Only yeasts were included in the panel of fungi as they have been used in the susceptibility testing of eutherian ([3], [81]–[83]) and other marsupial cathelicidins previously ([33], [42], [43]). Cathelicidin mature peptides were solubilized in DMSO and serially diluted in duplicate from 128-0.25μg/mL in a final volume of 100µL. For bacteria, cathelicidins were diluted in Mueller Hinton Broth (MHB) with or without 10% lysed horse blood, and with (MH II B) or without (MHB) calcium and magnesium cations. For fungi, cathelicidins were diluted in Roswell Park Memorial Institute medium (RPMI)-1640 MOPS. Ampicillin or tetracycline were included as a positive control for Gram-positive and -negative bacteria respectively, while amphotericin B was used for fungi. A media-only negative control and growth control (no cathelicidin) were also included on each plate. Bacteria were sub-cultured on Muller Hinton agar (MHA) or sheep blood agar (BA), and fungi on Sabouraud dextrose agar (SAB), 20–24 hours prior to the test. Colonies were suspended in saline, the concentration adjusted to a 0.5 McFarland standard, and then diluted in media to a concentration of 1.0 x 10^6 cells/mL. Then, 100μL was added to each well of the cathelicidin dilution plate, giving a final inoculum density of 5 x 10^5 CFU/mL and cathelicidin concentration of 64-0.125μg/mL. Colony counts were performed on MHA/BA/SAB to confirm inoculum density. All plates were incubated at 35°C for 20–24 hours, depending on the strain.
(§3) Colonies were counted and compared to the colony count of the starting inoculum.

[2] = tested on: three fungi (Candida krusei, Candida parapsilosis, Candida albicans); assay: Antifungal screening, summary over the panel of fungi (broth microdilution); assay type: cell-based; conditions: synthesized mature peptide
Method: as §1, §2, §3

[3] = broth microdilution screening, phase I or II, Y/N summary over the bacteria tested
[4] = broth microdilution screening, phase I, Y/N summary over the fungi tested
[5] = antimicrobial screening Phase I, Y/N summary over bacteria tested, broth microdilution
[6] = antimicrobial screening Phase I, Y/N summary over fungi tested, broth microdilution

Row | Sequence | Antibacterial (MIC <64ug/mL) [1, 3] | Antifungal (MIC <64ug/mL) [2, 4] | Antibacterial (MIC <64ug/mL) [1, 5] | Antifungal (MIC <64ug/mL) [2, 6]
1 | KVKRGLWEDLKRKATKFGDDIRNTLRNVKIKFPVPHLG [MagiCath9] | N (Antibacterial (MIC <64ug/mL)) | N (Antifungal (MIC <64ug/mL)) | – | –
2 | KRFGFRWFIRTLLRFRGEKVKTRFIFAIEKLIDT [MAP12, marsupial ancestral peptide, predicted by ANCESCON and GASP, synthesized] | – | – | N (Antibacterial (MIC <64ug/mL)) | N (Antifungal (MIC <64ug/mL))
3 | RSKRSSSLEEIDIDSLPPKVKEIYYRGIDDAIGGILRNF [TrvuCath4] | N (Antibacterial (MIC <64ug/mL)) | N (Antifungal (MIC <64ug/mL)) | – | –
4 | PKRKKGSKKRRFRPGGYTLIALGKPRVQKAPYMEAL [MAP3, marsupial ancestral peptide, likely linear, rich in arginine (32.2%) and proline (25.8%)] | – | – | N (Antibacterial (MIC <64ug/mL)) | N (Antifungal (MIC <64ug/mL))
